What was measured:
Experiment in all cases: Indoor virulence and combined effect, greenhouse pot test, post-emergence stem and leaf spray, fresh weight inhibition
Type in all cases: in vivo
[1] = test system: echinochloa crusgalli; settings: for Fresh weight suppression rate %, A single dose: Table 22
Method in brief: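 Greenhouse potted weeds sprayed post-emergence on stem and leaf at 3–4 leaf stage, with A and B alone or mixed; acetone solutions diluted in 0.1 wt% Tween-80, solvent-emulsifier water as blank.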

[2] = test system: eleusine indica
Method in brief: (§1)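 Weeds in greenhouse pots received a spray-tower treatment, either post-emergence at the 3–4 leaf (grasses) or 4–6 leaf (broadleaf) stage, or pre-emergence as a soil spray 24 h after sowing. Compounds were applied in acetone diluted with 0.1 wt% Tween-80 water, alone or mixed, in g/ha. Fresh weight inhibition was measured at 21 days, with synergy judged by Gowing expected efficacy (E−E0 >10%).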

[3] = test system: lolium multiflorum
Method in brief: as §1

[4] = test system: alopecurus japonicus
Method in brief: as §1

[5] = test system: digitaria sanguinalis; settings: for Fresh weight suppression rate %, A single agent: Table 14
Method in brief: as §1

CCOC(=O)C(C)(C)OC(=O)c1cc(-n2c(=O)cc(C(F)(F)F)n(C)c2=O)c(F)cc1Cl [Compound A-250]
Fresh weight inhibition rate %, A single agent ([1]; Table 2, 15 g a.i./ha, post-emergence, 21 days after treatment): 26.41% | Fresh weight inhibition rate %, A single agent ([1]; Table 2, 20 g a.i./ha, post-emergence, 21 days after treatment): 30.73% | Fresh weight inhibition rate %, A single agent ([1]; Table 3, 20 g a.i./ha, post-emergence, 21 days after treatment): 30.73% | Fresh weight inhibition rate %, A single agent ([1]; Table 3, 25 g a.i./ha, post-emergence, 21 days after treatment): 31.56% | Fresh weight inhibition rate %, A single agent ([1]; Table 4, 15 g a.i./ha, post-emergence, 21 days after treatment): 26.41% | Fresh weight inhibition rate %, A single agent ([1]; Table 4, 20 g a.i./ha, post-emergence, 21 days after treatment): 30.73% | Fresh weight inhibition rate %, A single agent ([1]; Table 4, 25 g a.i./ha, post-emergence, 21 days after treatment): 31.56% | Fresh weight suppression rate %, A single dose ([1]; A 10 g a.i./ha): 17.77% | Fresh weight suppression rate %, A single dose ([1]; A 15 g a.i./ha): 26.41% | Fresh weight suppression rate %, A single dose ([1]; A 20 g a.i./ha): 30.73% | Fresh weight suppression rate %, A single dose ([1]; A 25 g a.i./ha): 31.56% | Fresh weight inhibition rate %, A single agent ([2]; Table 30, A 10 g a.i./ha): 43.34% | Fresh weight inhibition rate %, A single agent ([2]; Table 30, A 15 g a.i./ha): 55.00% | Fresh weight inhibition rate %, A single agent ([2]; Table 30, A 20 g a.i./ha): 68.03% | Fresh weight inhibition rate %, A single agent ([2]; Table 30, A 25 g a.i./ha): 70.36% | Fresh weight inhibition rate %, A single agent ([2]; Table 30, A 30 g a.i./ha): 75.35% | Fresh weight inhibition rate %, A single agent ([3]; Table 34, A 15 g a.i./ha): 55.00% | Fresh weight inhibition rate %, A single agent ([3]; Table 34, A 20 g a.i./ha): 68.03% | Fresh weight inhibition rate %, A single agent ([3]; Table 34, A 25 g a.i./ha): 70.36% | Fresh weight inhibition rate %, A single agent ([3]; Table 34, A 30 g a.i./ha): 75.35% | Fresh weight inhibition rate %, A single agent ([3]; Table 38, A 10 g a.i./ha): 43.34% | Fresh weight inhibition rate %, A single agent ([3]; Table 38, A 15 g a.i./ha): 55.00% | Fresh weight inhibition rate %, A single agent ([3]; Table 38, A 20 g a.i./ha): 68.03% | Fresh weight inhibition rate %, A single agent ([4]; Table 7, 15 g a.i./ha, post-emergence, 21 days after treatment): 39% | Fresh weight inhibition rate %, A single agent ([4]; Table 7, 20 g a.i./ha, post-emergence, 21 days after treatment): 49.17% | Fresh weight inhibition rate %, A single agent ([4]; Table 7, 25 g a.i./ha, post-emergence, 21 days after treatment): 55.39% | Fresh weight inhibition rate %, A single agent ([5]; Table 29, A 15 g a.i./ha): 54.46% | Fresh weight inhibition rate %, A single agent ([5]; Table 29, A 20 g a.i./ha): 61.09% | Fresh weight inhibition rate %, A single agent ([5]; Table 29, A 25 g a.i./ha): 65.86% | Fresh weight inhibition rate %, A single agent ([5]; Table 29, A 30 g a.i./ha): 71.11% | Fresh weight inhibition rate %, A single agent ([5]; Table 31, A 15 g a.i./ha): 54.46% | Fresh weight inhibition rate %, A single agent ([5]; Table 31, A 20 g a.i./ha): 61.09% | Fresh weight inhibition rate %, A single agent ([5]; Table 31, A 25 g a.i./ha): 65.86%

COCCOC(=O)C(C)(C)OC(=O)c1cc(-n2c(=O)cc(C(F)(F)F)n(C)c2=O)c(F)cc1Cl [Compound A-273]
Fresh weight inhibition rate %, A single agent ([1]; Table 17, 15 g a.i./ha, post-emergence, 21 days after treatment): 30.04% | Fresh weight inhibition rate %, A single agent ([1]; Table 17, 20 g a.i./ha, post-emergence, 21 days after treatment): 21.43% | Fresh weight inhibition rate %, A single agent ([1]; Table 17, 25 g a.i./ha, post-emergence, 21 days after treatment): 19.41% | Fresh weight inhibition rate %, A single agent ([1]; Table 37, A 10 g a.i./ha): 19.41% | Fresh weight inhibition rate %, A single agent ([1]; Table 37, A 15 g a.i./ha): 21.43% | Fresh weight inhibition rate %, A single agent ([1]; Table 37, A 20 g a.i./ha): 30.04% | Fresh weight inhibition rate %, A single agent ([1]; Table 37, A 25 g a.i./ha): 38.28% | Fresh weight inhibition rate %, A single agent ([1]; Table 44, A 10 g a.i./ha): 19.41% | Fresh weight inhibition rate %, A single agent ([1]; Table 44, A 15 g a.i./ha): 21.43% | Fresh weight inhibition rate %, A single agent ([1]; Table 44, A 20 g a.i./ha): 30.04% | Fresh weight inhibition rate %, A single agent ([1]; Table 44, A 25 g a.i./ha): 38.28% | Fresh weight inhibition rate %, A single agent ([2]; Table 18, A 5 g a.i./ha): 34.65% | Fresh weight inhibition rate %, A single agent ([2]; Table 18, A 10 g a.i./ha): 43.34% | Fresh weight inhibition rate %, A single agent ([2]; Table 18, A 15 g a.i./ha): 55.00% | Fresh weight inhibition rate %, A single agent ([2]; Table 18, A 20 g a.i./ha): 68.03% | Fresh weight inhibition rate %, A single agent ([2]; Table 32, A 15 g a.i./ha): 55.00% | Fresh weight inhibition rate %, A single agent ([2]; Table 32, A 20 g a.i./ha): 68.03% | Fresh weight inhibition rate %, A single agent ([2]; Table 32, A 25 g a.i./ha): 70.36% | Fresh weight inhibition rate %, A single agent ([2]; Table 33, A 10 g a.i./ha): 43.34% | Fresh weight inhibition rate %, A single agent ([2]; Table 33, A 15 g a.i./ha): 55.00% | Fresh weight inhibition rate %, A single agent ([2]; Table 33, A 20 g a.i./ha): 68.03% | Fresh weight inhibition rate %, A single agent ([2]; Table 33, A 25 g a.i./ha): 70.36% | Fresh weight inhibition rate %, A single agent ([2]; Table 33, A 30 g a.i./ha): 75.35% | Fresh weight inhibition rate %, A single agent ([2]; Table 35, A 10 g a.i./ha): 43.34% | Fresh weight inhibition rate %, A single agent ([2]; Table 35, A 15 g a.i./ha): 55.00% | Fresh weight inhibition rate %, A single agent ([2]; Table 35, A 20 g a.i./ha): 68.03% | Fresh weight inhibition rate %, A single agent ([2]; Table 35, A 25 g a.i./ha): 70.36% | Fresh weight inhibition rate %, A single agent ([2]; Table 36, A 5 g a.i./ha): 34.65% | Fresh weight inhibition rate %, A single agent ([2]; Table 36, A 10 g a.i./ha): 43.34% | Fresh weight inhibition rate %, A single agent ([2]; Table 36, A 15 g a.i./ha): 55.00% | Fresh weight inhibition rate %, A single agent ([2]; Table 36, A 20 g a.i./ha): 68.03% | Fresh weight inhibition rate %, A single agent ([2]; Table 36, A 25 g a.i./ha): 70.36% | Fresh weight inhibition rate %, A single agent ([3]; Table 19, A 5 g a.i./ha): 22.25% | Fresh weight inhibition rate %, A single agent ([3]; Table 19, A 10 g a.i./ha): 50.48% | Fresh weight inhibition rate %, A single agent ([3]; Table 19, A 15 g a.i./ha): 55.50% | Fresh weight inhibition rate %, A single agent ([3]; Table 19, A 20 g a.i./ha): 60.05% | Fresh weight inhibition rate %, A single agent ([3]; Table 20, A 5 g a.i./ha): 22.25% | Fresh weight inhibition rate %, A single agent ([3]; Table 20, A 10 g a.i./ha): 50.48% | Fresh weight inhibition rate %, A single agent ([3]; Table 20, A 15 g a.i./ha): 55.50% | Fresh weight inhibition rate %, A single agent ([3]; Table 20, A 20 g a.i./ha): 60.05% | Fresh weight inhibition rate %, A single agent ([3]; Table 27, A 15 g a.i./ha): 55.5% | Fresh weight inhibition rate %, A single agent ([3]; Table 27, A 20 g a.i./ha): 60.05% | Fresh weight inhibition rate %, A single agent ([3]; Table 27, A 25 g a.i./ha): 77.30% | Fresh weight inhibition rate %, A single agent ([4]; Table 5, 15 g a.i./ha, post-emergence, 21 days after treatment): 44.57% | Fresh weight inhibition rate %, A single agent ([4]; Table 5, 20 g a.i./ha, post-emergence, 21 days after treatment): 61.55% | Fresh weight inhibition rate %, A single agent ([4]; Table 5, 25 g a.i./ha, post-emergence, 21 days after treatment): 72.42% | Fresh weight inhibition rate %, A single agent ([4]; Table 25, A 15 g a.i./ha): 44.57% | Fresh weight inhibition rate %, A single agent ([4]; Table 25, A 20 g a.i./ha): 61.55% | Fresh weight inhibition rate %, A single agent ([4]; Table 25, A 25 g a.i./ha): 72.42% | Fresh weight inhibition rate %, A single agent ([4]; Table 25, A 30 g a.i./ha): 86.91% | Fresh weight inhibition rate %, A single agent ([5]; Table 1, 10 g a.i./ha, post-emergence, 21 days after treatment): 45.50% | Fresh weight inhibition rate %, A single agent ([5]; Table 1, 12.5 g a.i./ha, post-emergence, 21 days after treatment): 55.30% | Fresh weight inhibition rate %, A single agent ([5]; Table 1, 20 g a.i./ha, post-emergence, 21 days after treatment): 60.47% | Fresh weight inhibition rate %, A single agent ([5]; Table 1, 25 g a.i./ha, post-emergence, 21 days after treatment): 62.48% | Fresh weight inhibition rate %, A single agent ([5]; Table 13, A 20 g a.i./ha): 60.47% | Fresh weight inhibition rate %, A single agent ([5]; Table 13, A 25 g a.i./ha): 62.48% | Fresh weight inhibition rate %, A single agent ([5]; Table 13, A 30 g a.i./ha): 63.97% | Fresh weight suppression rate %, A single agent ([5]; A 10 g a.i./ha): 31.16% | Fresh weight suppression rate %, A single agent ([5]; A 15 g a.i./ha): 59.30% | Fresh weight suppression rate %, A single agent ([5]; A 20 g a.i./ha): 60.47% | Fresh weight suppression rate %, A single agent ([5]; A 30 g a.i./ha): 65.40% | Fresh weight inhibition rate %, A single agent ([5]; Table 15, A 15 g a.i./ha): 59.3% | Fresh weight inhibition rate %, A single agent ([5]; Table 15, A 20 g a.i./ha): 60.47% | Fresh weight inhibition rate %, A single agent ([5]; Table 15, A 25 g a.i./ha): 62.48% | Fresh weight inhibition rate %, A single agent ([5]; Table 16, A 10 g a.i./ha): 9.55% | Fresh weight inhibition rate %, A single agent ([5]; Table 16, A 20 g a.i./ha): 45.07% | Fresh weight inhibition rate %, A single agent ([5]; Table 16, A 25 g a.i./ha): 58.81% | Fresh weight inhibition rate %, A single agent ([5]; Table 16, A 30 g a.i./ha): 60.30% | Fresh weight inhibition rate %, A single agent ([5]; Table 41, A 10 g a.i./ha): 45.50% | Fresh weight inhibition rate %, A single agent ([5]; Table 41, A 15 g a.i./ha): 59.30% | Fresh weight inhibition rate %, A single agent ([5]; Table 41, A 20 g a.i./ha): 60.47% | Fresh weight inhibition rate %, A single agent ([5]; Table 41, A 25 g a.i./ha): 62.48%

Reference: patent US20250176550A1, “HERBICIDE COMPOSITION OF URACIL COMPOUND CONTAINING CARBOXYLATE FRAGMENT AND THE USE THEREOF” (Jiangsu Flag Chemical Industry Co., Ltd., priority 2022, published 2025)
